Data as given in the supplement of paper PMC11579375.

Experiments:
Assay in all cases: area under the viability dose-response curve (AUC) (AUC (arbitrary units, max 500 = no viability loss)); higher = less sensitive (higher viability)
Conditions in all cases: exposure time: 120 h; concentration range: 0.1 nM - 10 µM, 6 doses
27F1 = test system: 27F1 (fetal-I hepatoblastoma organoid with intermediate liver markers)
Procedure: (§1)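 Patient-derived hepatoblastoma tumor organoids (about 50 organoids per well, 384-well plates, medium with 5% BME) were treated with the PMC pediatric cancer drug library. Each drug was tested in duplicate at 6 concentrations (0.1 nM to 10 µM, 10-fold steps).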

10F2 = test system: 10F2 (fetal-II hepatoblastoma organoid with high liver markers)
Procedure: as §1

17E = test system: 17E (embryonal-type hepatoblastoma organoid)
Procedure: as §1

13F2 = test system: 13F2 (fetal-II hepatoblastoma organoid with high liver markers)
Procedure: as §1

3E = test system: 3E (embryonal-type hepatoblastoma organoid)
Procedure: as §1

13E = test system: 13E (embryonal-type hepatoblastoma organoid)
Procedure: as §1

17F1 = test system: 17F1 (fetal-I hepatoblastoma organoid with intermediate liver markers)
Procedure: as §1

8F1 = test system: 8F1 (fetal-I hepatoblastoma organoid with intermediate liver markers)
Procedure: as §1

22E = test system: 22E (embryonal-type hepatoblastoma organoid)
Procedure: as §1

135F2 = test system: 135F2 (fetal-II hepatoblastoma organoid with high liver markers)
Procedure: as §1

96F1 = test system: 96F1 (fetal-I hepatoblastoma organoid with intermediate liver markers)
Procedure: as §1

SMILES	area under the viability dose-response curve (27F1)	area under the viability dose-response curve (10F2)	area under the viability dose-response curve (17E)	area under the viability dose-response curve (13F2)	area under the viability dose-response curve (3E)	area under the viability dose-response curve (13E)	area under the viability dose-response curve (17F1)	area under the viability dose-response curve (8F1)	area under the viability dose-response curve (22E)	area under the viability dose-response curve (135F2)	area under the viability dose-response curve (96F1)
Cc1ncc(Cl)cc1NCc1ccc(C(=O)N[C@@H](CC2CCCC2)C(=O)NC2CC2)s1	488	491	> 500	468	456	> 500	> 500	> 500	> 500	476	> 500
C[C@@H](Oc1cc(-c2cnn(C3CCNCC3)c2)cnc1N)c1c(Cl)ccc(F)c1Cl [Crizotinib]	441	369	405	398	379	415	431	477	420	422	462
CC1(C)CCC(c2ccc(Cl)cc2)=C(CN2CCN(c3ccc(C(=O)NS(=O)(=O)c4ccc(N[C@H](CCN5CCOCC5)CSc5ccccc5)c(S(=O)(=O)C(F)(F)F)c4)cc3)CC2)C1 [Navitoclax]	421	335	423	409	326	414	433	321	423	425	423
CC(C)(C)c1cc(NC(=O)Nc2ccc(-c3cn4c(n3)sc3cc(OCCN5CCOCC5)ccc34)cc2)no1 [Quizartinib]	> 500	474	432	485	> 500	> 500	471	494	484	489	489
CN1CCN(c2ccc3nc(-c4c(N)c5c(F)cccc5[nH]c4=O)[nH]c3c2)CC1 [Dovitinib]	477	418	390	400	396	417	468	499	412	455	433
CCn1cc(-c2ccnc3[nH]c(-c4cccc(CN(C)C)c4)cc23)c(-c2ccc(NC(=O)N(C)C)cc2)n1	387	307	297	298	322	382	477	458	408	370	413
C[C@]12C=CC(=O)C=C1CC[C@@H]1[C@@H]2[C@@H](O)C[C@@]2(C)[C@H]1CC[C@]2(O)C(=O)CO [Prednisolone]	489	475	467	> 500	472	494	493	472	487	475	479
Cc1sc2c(c1C)C(c1ccc(Cl)cc1)=N[C@@H](CC(=O)Nc1ccc(O)cc1)c1nnc(C)n1-2 [Birabresib]	482	390	395	318	358	410	461	473	399	354	478
COc1cc(Nc2ncc3c(n2)-c2ccc(Cl)cc2C(c2c(F)cccc2OC)=NC3)ccc1C(=O)O [Alisertib]	436	325	339	310	328	381	494	473	382	369	416
COc1cc2c(Oc3ccc4[nH]c(C)cc4c3F)ncnc2cc1OCCCN1CCCC1 [Cediranib]	431	430	425	402	390	428	459	> 500	414	438	454
C[C@]12CCCN1CC1=NNC(=O)c3cc(F)cc4[nH]c2c1c34 [Pamiparib]	487	439	> 500	443	459	481	> 500	479	473	478	494
N[C@@H](Cc1ccc(N(CCCl)CCCl)cc1)C(=O)O [Melphalan]	> 500	414	434	436	> 500	417	> 500	483	> 500	469	467
C#Cc1cccc(Nc2ncnc3cc(OCCOC)c(OCCOC)cc23)c1 [Erlotinib]	423	311	448	360	476	488	448	463	485	469	415
COc1cccc(OCCCN)c1-c1cc(Nc2cnc(C#N)cn2)n[nH]1 [Prexasertib]	264	293	274	345	172	313	371	334	345	324	320
CC(C)c1cc(-c2n[nH]c(=O)n2-c2ccc3c(ccn3C)c2)c(O)cc1O [Ganetespib]	278	236	232	243	265	269	343	265	345	340	358
